# Source: patent publication US9802962B2, “Tricyclic pyrone compounds reduce amyloid beta aggregates” (priority 2013, dated 2017)
# What was measured:
# MC65 neuroblastoma cells = assay: MC65 protection assay; format: cell-based
# Experimental: Employing medium-throughput cell-based MC65 protection assay to screen over one hundred TP compounds, seven TP compounds that protect MC65 neuroblastoma cells from death caused by intracellular Aβ have been identified. […] The EC50 values for CP2, TP70, and TP101 are 120, 80, and 70 nM, respectively.
# [1] = test system: ABCA1 cholesterol transporter gene; assay: Increase of ABCA1 cholesterol transporter gene; format: cell-based
# Description: It has been reported that an induction of cholesterol efflux resulting in a reduction of Aβ formation/deposition in vitro and in vivo (Kim, et al., J Alzheimers Dis, 2009, 16:121-131). For additional Detail, see the attached manuscript entitled, “Inhibition of Acyl-CoA: Cholesterol Acyltransferase (ACAT), Overexpression of Cholesterol Transporter Gene, and Protection of Amyloid β (Aβ) Oligomers-Induced Neuronal Cell Death by Tricylic Pyrone Molecules” which is incorporated herein.
# [2] = Plasma and brain concentrations after i.v. administration in mice; format: in vivo
# Experimental: FIGS. 3A-3B. FIG. 3A. CP2 and TP70 plasma and brain concentrations following i.v. injection in mice (n=3). FIG. 3B. […] The drug concentration was determined using HPLC and mass spectrometry.
# HPLC/mass spectrometry were employed to quantify CP2 and TP70 in the plasma and brain after i.v. administration in mice. The CP2 concentration was 200-300 μM in the mouse brain between 0.5 and 2 h following 25 mg/kg i.v. administration (FIG. 3A). Similarly, TP70 concentration reached 190 μM in plasma at 5 min and 160 μM in brain at 2 h following 25 mg/Kg i.v. administration (FIGS. 3A and 3B).
# 5×FAD mice = assay: In vivo efficacy in 5×FAD mice
# Experimental: FIGS. 6A-6E. 2-month-old 5×FAD mice were treated with TP70 or vehicle for 6 weeks as described in the text. Four cortical sections evenly distributed through the cerebrum were taken from one hemisphere of each mouse (6 mice in each treatment group) and fluorescently stained with the amyloid dye FSB (blue) and the nuclear dye propidium iodide (PI, red). A: Representative sections that show the PI stain. B: Representative sections that only show the FSB stain. C: Fluorescent staining was objectively quantified by LSC. […] E: A representative Western blot containing the soluble fractions of three mice of each group was analyzed for soluble Aβ dimer (see ref 59 for the method).
# Although the mechanism of neuron loss in Alzheimer's disease (AD) remains elusive, it is associated with cerebral accumulation of Aβ42. The 5×FAD mouse model of amyloid deposition expresses five familial AD (FAD) mutations that are additive in driving Aβ42 overproduction.
# wildtype mice (C57BL/6) = assay: Rotarod performance in wildtype mice; format: in vivo; conditions: 50 mg/kg ip, one hour after dosing, Day 5
# Experimental: FIG. 9. Effects of TP70 on mouse rotarod performance. The mice were trained three times every day for 4 days to reach its maximal performance using SmartCage Rotarod device (with a setting of a constant speed at 15 […] per minute).
# To further assess side effects on motor activity, and particularly balance and muscle coordination, rotarod performance was conducted by the wildtype mice (C57BL/6 female, 2 months old, n=7). Vehicle injection (i.p) was given after the Day 4 training to assess any effects of vehicle or injection per se. On Day 5, one hour after TP70 (50 mg/kg, ip) the mice were subject to the rotarod test.
# [3] = Cerep in vitro profiling (protein binding, absorption, metabolic stability, off target activity); format: in vitro ADME; conditions: Caco-2, P-gp, human liver microsomes, CYPs, HepG2 viability, hERG
# [4] = Plasma concentration after 7 days of TP70 in drinking water, APP/PS1 mice; format: in vivo; conditions: after 7 days in drinking water
# Description: The validated SmartCage™ system that enables automated, objective, quantitative and long-term evaluation of neuropsychological endpoints at the animal's home cages (Flores, et al., IEEE Trans Biomed Eng, 2007, 54:225-233; Xiong, et al., Stroke, 2011, 42:2026-2032; Carter, et al., Nat Neurosci, 2010, 13:1526-1533; Khroyan, et al., Clin Exp Pharmacol Physiol, 2012, 39:614-622) was used to complement other special individual learning and memory tests (Shineman, et al., Alzheimers Res Ther, 2011, 3:28; Hamann, et al., Neuropsychologia, 2002, 40:1187-1195; Aultman, et al., Psychopharmacology (Berl), 2001, 153:353-364; Ashe, K H, J Alzheimers Dis, 2006, 9:123-126). The SmartCage was able to reveal the behavioral phenotypes of a mouse stroke model of middle cerebral artery occlusion (MCAO) (Xiong, et al., Stroke, 2011, 42:2026-2032) and a hypocretin/orexin neuron degeneration model (orexin/ataxin-3) (Xie, et al., J Clin Invest, 2008, 118:2471-2481; Aultman, et al., Psychopharmacology (Berl), 2001, 153:353-364; Hara, et al., Neuron 2001, 30:345-354). […] These validated protocols were applied to PK/PD studies on TP70 in one more AD transgenic model, APP/PS1 mice, which express mutant APPs in combination with mutant PS1. […] Homecage activity and locomotion were assessed on Day 7 after the treatment and the blood samples were collected from each mouse after the assessment of general behavior. […]
structure (smiles),measurement,setting,value
Cc1cc2c(c(=O)o1)C=C1CCC(C(C)CNCc3ccc(O)cc3)CC1O2 (stereo not drawn) [TP70],concentration required for cell toxicity protection,MC65 neuroblastoma cells,submicromolar
same,EC50 values (in words),MC65 neuroblastoma cells; protection of MC65 cells from death caused by intracellular Aβ,nanomolar range
same,EC50,"MC65 neuroblastoma cells; protection of MC65 cells from death caused by intracellular Aβ, read-out: effective concentrations for 50% cell survival (EC50)",80 nM
same,EC50,[1],1100 nM
same,brain concentration,"[2]; brain at 2 h, 25 mg/Kg i.v.",160 µM
same,CNS penetration,"[2]; i.v., mice",good CNS penetration
same,plasma concentration,"[2]; plasma at 5 min, 25 mg/Kg i.v.",190 µM
same,elimination t½,"[2]; plasma, i.v., 3-compartment model fit",2.5 h
same,"plaque count (FSB stain), cortical sections","5×FAD mice; 2-month-old 5×FAD mice, 6 weeks oral treatment, versus vehicle, LSC",substantial reduction of plaque count
same,"nuclear count (PI stain), cortical sections","5×FAD mice; 2-month-old 5×FAD mice, 6 weeks treatment, versus vehicle, LSC",no difference in nuclear count
same,cerebral amyloid load,5×FAD mice; 5×FAD mice,substantially reduce
same,drug toxicity during the course of treatment,5×FAD mice; 5×FAD mice,no apparent drug toxicity
same,"histopathology, hematological counts, and blood chemistry at necropsy",5×FAD mice; 5×FAD mice,No abnormalities
same,levels of toxic Aβ dimers,5×FAD mice; 5×FAD mice,substantially reduce
same,rotarod performance,wildtype mice (C57BL/6),insignificant effects
same,druggable profile versus currently used drugs or reference compounds,[3],druggable profiles better or similar to several currently used drugs or reference compounds
same,plasma TP70 concentration,[4],1.7 ± 0.5 mg/L
same,plasma TP70 concentration (equivalent),[4],4.3 µM
